The values below come from US9499548B2, “Inhibitors of bruton's tyrosine kinase” (Hoffmann-La Roche Inc., priority 2012, dated 2016).

The test relates to B cell receptor-mediated activation of B cells in human blood (CD69 expression). The test is described as follows: Inhibition of B cell activation in whole blood measured by CD69 expression. The format is cell-based. The conditions noted are these: anti-IgM stimulation, 20 hours, concentration decreasing by 50% the CD69-positive cells that are also CD20-positive. The protocol: Inhibition of B Cell Activation in Whole Blood Measured by CD69 Expression
A procedure to test the ability of Btk inhibitors to suppress B cell receptor-mediated activation of B cells in human blood is as follows:
Human whole blood (HWB) is obtained from healthy volunteers, with the following restrictions: 24 hr drug-free, non-smokers. Blood is collected by venipuncture into Vacutainer tubes anticoagulated with sodium heparin. Test compounds are diluted to ten times the desired starting drug concentration in PBS (20×), followed by three-fold serial dilutions in 10% DMSO in PBS to produce a nine point dose-response curve. 5.5 μl of each compound dilution is added in duplicate to a 2 ml 96-well V bottom plate (Analytical Sales and Services, #59623-23); 5.5 μl of 10% DMSO in PBS is added to control and no-stimulus wells. HWB (100 μl) is added to each well, and after mixing the plates are incubated at 37 C, 5% CO2, 100% humidity for 30 minutes. Goat F(ab′)2 anti-human IgM (Southern Biotech, #2022-14) (10 μl of a 500 μg/ml solution, 50 μg/ml final concentration) is added to each well (except the no-stimulus wells) with mixing and the plates are incubated for an additional 20 hours.
At the end of the 20 hour incubation, samples are incubated with florescent-probe-labeled antibodies (15 μl PE Mouse anti-Human CD20, BD Pharmingen, #555623, and/or 20 ul APC Mouse anti-Human CD69, BD Pharmingen #555533) for 30 minutes, at 37 C, 5% CO2, 100% humidity. Included are induced control, unstained and single stains for compensation adjustments and initial voltage settings. Samples are then lysed with 1 ml of 1× Pharmingen Lyse Buffer (BD Pharmingen #555899), and plates are centrifuged at 1800 rpm for 5 minutes. Supernatants are removed via suction and the remaining pellets are lysed again with another 1 ml of 1× Pharmingen Lyse Buffer, and plates are spun down as before. Supernatants are aspirated and remaining pellets are washed in FACs buffer (PBS+1% FBS). After a final spin, the supernatants are removed and pellets are resuspended in 180 μl of FACs buffer. Samples are transferred to a 96 well plate suitable to be run on the HTS 96 well system on the BD LSR II flow cytometer.
Using appropriate excitation and emission wavelengths for the fluorophores used, data are acquired and percent positive cell values are obtained using Cell Quest Software. Results are initially analyzed by FACS analysis software (Flow Jo). […] The IC50 values are calculated using XLfit software version 3, equation 201.
Representative compound data for this assay are listed below in Table II.
In the case of `Cn1nc(Nc2cc(-c3cccc(-n4ncc5cc(C(C)(C)C)ccc5c4=O)c3CO)nn(C)c2=O)cc1CN1CCC1` [Compound I-3, 2-{3-[5-(5-Azetidin-1-ylmethyl-1-methyl-1H-pyrazol-3-ylamino)-1-methyl-6-oxo-1,6-dihydro-pyridazin-3-yl]-2-hydroxymethyl-phenyl}-6-tert-butyl-2H-phthalazin-1-one], the half-inhibitory concentration (IC50) (as a rule, the concentration needed to halve the response being measured) was determined as 30 nM.

Consider `CN1CCC(c2ccc(Nc3cc(-c4cccc(-n5ncc6cc(C(C)(C)C)ccc6c5=O)c4CO)nn(C)c3=O)nc2)CC1` [Compound I-2, 6-tert-Butyl-2-{2-hydroxymethyl-3-[1-methyl-5-(1′-methyl-1′,2′,3′,4′,5′,6′-hexahydro-[3,4′]bipyridinyl-6-ylamino)-6-oxo-1,6-dihydro-pyridazin-3-yl]-phenyl}-2H-phthalazin-1-one], for which the midpoint of inhibition, the IC50, lay at 10 nM.

`CN1CCC(c2ccc(Nc3cc(-c4cccc(-n5ncc6cc(C(C)(C)C#N)ccc6c5=O)c4CO)nn(C)c3=O)nc2)CC1` [Compound I-7, 2-(2-{2-Hydroxymethyl-3-[1-methyl-5-(1′-methyl-1′,2′,3′,4′,5′,6′-hexahydro-[3,4′]bipyridinyl-6-ylamino)-6-oxo-1,6-dihydro-pyridazin-3-yl]-phenyl}-1-oxo-1,2-dihydro-phthalazin-6-yl)-2-methyl-propionitrile] returned an IC50 of 38 nM.

As for `Cn1nc(-c2cccc(-n3ncc4cc(C(C)(C)C)ccc4c3=O)c2CO)cc(Nc2ccc(C(=O)N3CCOCC3)cn2)c1=O` [Compound I-10, 6-tert-Butyl-2-(2-hydroxymethyl-3-{1-methyl-5-[5-(morpholine-4-carbonyl)-pyridin-2-ylamino]-6-oxo-1,6-dihydro-pyridazin-3-yl}-phenyl)-2H-phthalazin-1-one], the IC50 was 47 nM.

Take `Cn1nc(-c2cccc(-n3ncc4cc(C(C)(C)C)ccc4c3=O)c2CO)cc(Nc2ccc(OC(C)(C)CN3CCC3)cn2)c1=O` [Compound I-1, 2-(3-{5-[5-(2-Azetidin-1-yl-1,1-dimethyl-ethoxy)-pyridin-2-ylamino]-1-methyl-6-oxo-1,6-dihydro-pyridazin-3-yl}-2-hydroxymethyl-phenyl)-6-tert-butyl-2H-phthalazin-1-one]: the IC50 amounted to 6 nM.

Regarding `CN1CCC(c2ccc(Nc3cc(-c4cccc(N5CCc6cc(C(C)(C)C#N)ccc6C5=O)c4CO)nn(C)c3=O)nc2)CC1` [Compound I-15, 2-(2-{2-Hydroxymethyl-3-[1-methyl-5-(1′-methyl-1′,2′,3′,4′,5′,6′-hexahydro-[3,4′]bipyridinyl-6-ylamino)-6-oxo-1,6-dihydro-pyridazin-3-yl]-phenyl}-1-oxo-1,2,3,4-tetrahydro-isoquinolin-6-yl)-2-methyl-propionitrile], the half-maximal inhibitory concentration (IC50) came to 198 nM.

The molecule `CN1CCn2nc(Nc3cc(-c4cccc(-n5ncc6cc(C(C)(C)C)ccc6c5=O)c4CO)nn(C)c3=O)cc2C1` [Compound I-8, 6-tert-Butyl-2-{2-hydroxymethyl-3-[1-methyl-5-(5-methyl-4,5,6,7-tetrahydro-pyrazolo[1,5-a]pyrazin-2-ylamino)-6-oxo-1,6-dihydro-pyridazin-3-yl]-phenyl}-2H-phthalazin-1-one] showed an IC50 of 42 nM.

Molecule `CN1CC[C@@H](c2ccc(Nc3cc(-c4cccc(-n5ncc6cc(C(C)(C)C)ccc6c5=O)c4CO)nn(C)c3=O)nc2)C1` [Compound I-5, 6-tert-Butyl-2-(2-hydroxymethyl-3-{1-methyl-5-[5-((S)-1-methyl-pyrrolidin-3-yl)-pyridin-2-ylamino]-6-oxo-1,6-dihydro-pyridazin-3-yl}-phenyl)-2H-phthalazin-1-one] yielded an IC50 of 35 nM.

Molecule `CN1CC[C@H](c2ccc(Nc3cc(-c4cccc(-n5ncc6cc(C(C)(C)C)ccc6c5=O)c4CO)nn(C)c3=O)nc2)C1` [Compound I-6, 6-tert-Butyl-2-(2-hydroxymethyl-3-{1-methyl-5-[5-((R)-1-methyl-pyrrolidin-3-yl)-pyridin-2-ylamino]-6-oxo-1,6-dihydro-pyridazin-3-yl}-phenyl)-2H-phthalazin-1-one] came in with an IC50 of 36 nM.

In turn, `Cn1nc(-c2cccc(-n3ncc4cc(C(C)(C)C#N)ccc4c3=O)c2CO)cc(Nc2ccc(OC(C)(C)CN3CCC3)cn2)c1=O` [Compound I-11, 2-[2-(3-{5-[5-(2-Azetidin-1-yl-1,1-dimethyl-ethoxy)-pyridin-2-ylamino]-1-methyl-6-oxo-1,6-dihydro-pyridazin-3-yl}-2-hydroxymethyl-phenyl)-1-oxo-1,2-dihydro-phthalazin-6-yl]-2-methyl-propionitrile] yielded an IC50 of 135 nM.

`Cn1nc(-c2cccc(-n3ncc4cc(C(C)(C)C)ccc4c3=O)c2CO)cc(Nc2ccc(OC(C)(C)CNCCCO)cn2)c1=O` [Compound I-12, 6-tert-Butyl-2-[2-hydroxymethyl-3-(5-{5-[2-(3-hydroxy-propylamino)-1,1-dimethyl-ethoxy]-pyridin-2-ylamino}-1-methyl-6-oxo-1,6-dihydro-pyridazin-3-yl)-phenyl]-2H-phthalazin-1-one] returned an IC50 of 187 nM.

Molecule `CN1CCC[C@H]1c1ccc(Nc2cc(-c3cccc(-n4ncc5cc(C(C)(C)C)ccc5c4=O)c3CO)nn(C)c2=O)nc1` [Compound I-4, 6-tert-Butyl-2-(2-hydroxymethyl-3-{1-methyl-5-[5-((S)-1-methyl-pyrrolidin-2-yl)-pyridin-2-ylamino]-6-oxo-1,6-dihydro-pyridazin-3-yl}-phenyl)-2H-phthalazin-1-one] displayed an IC50 of 32 nM.

The molecule `CCN1CCC(c2ccc(Nc3cc(-c4cccc(-n5ncc6cc(C(C)(C)C)ccc6c5=O)c4CO)nn(C)c3=O)nc2)CC1` [Compound I-9, 6-tert-Butyl-2-{3-[5-(1′-ethyl-1′,2′,3′,4′,5′,6′-hexahydro-[3,4′]bipyridinyl-6-ylamino)-1-methyl-6-oxo-1,6-dihydro-pyridazin-3-yl]-2-hydroxymethyl-phenyl}-2H-phthalazin-1-one] showed an IC50 of 45 nM.

For the molecule `Cn1nc(-c2cccc(-n3ncc4cc(C(C)(C)C)ccc4c3=O)c2CO)cc(Nc2ccc(C3CCN(C4COC4)CC3)cn2)c1=O` [Compound I-13, 6-tert-Butyl-2-{2-hydroxymethyl-3-[1-methyl-5-(1′-oxetan-3-yl-1′,2′,3′,4′,5′,6′-hexahydro-[3,4′]bipyridinyl-6-ylamino)-6-oxo-1,6-dihydro-pyridazin-3-yl]-phenyl}-2H-phthalazin-1-one], the IC50 is 188 nM.

`Cn1nc(-c2cccc(-n3ncc4cc(C(C)(C)C)ccc4c3=O)c2CO)cc(Nc2ccc(OC(C)(C)CN3CC(F)(F)C3)cn2)c1=O` [Compound I-14, 6-tert-Butyl-2-[3-(5-{5-[2-(3,3-difluoro-azetidin-1-yl)-1,1-dimethyl-ethoxy]-pyridin-2-ylamino}-1-methyl-6-oxo-1,6-dihydro-pyridazin-3-yl)-2-hydroxymethyl-phenyl]-2H-phthalazin-1-one] displayed an IC50 of 573 nM.
